Source: patent EP0545103A1, “Insecticidal, acaricidal and molluscicidal 1-(substituted) thioalkylpyrroles” (priority 1991, dated 1993)

Experiments:
Format in all cases: in vivo
Set-up in all cases: key: 0: no effect; 10-25% kill; 26-35% kill; 36-45% kill; 46-55% kill; 56-65% kill; 66-75% kill; 76-85% kill; 86-99% kill; 9: 100% kill
[1] = system: Diabrotic undecimpunctata howardi, 3rd instar southern corn rootworm; test: Southern corn rootworm soil test; details: mortality rating after 6 days
Method in brief: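 Soil test with ten 3rd instar larvae per jar, mortality read after 6 days and missing larvae counted as dead; scores on a rating scale. Doses were 1.25 and 0.25 mg a.i. per jar, corresponding to roughly 50 and 10 kg/ha, loaded on talc from acetone and mixed into moist soil with millet seed as food.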

[2] = system: Aphis fabae, mixed instar, bean aphid; test: Bean aphid spray test on nasturtium; details: 100 ppm
Method in brief: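 Mortality rated on a scale 2 days after treatment of aphid-infested (100-200 per plant, infested a day earlier) ~5 cm nasturtiums sprayed to complete coverage. Spray solutions: 10,000 ppm compound in 35% acetone in water, with further water dilutions.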

[3] = system: Tetranychus urticae (OP-resistant strain), 2-spotted spider mite; test: 2-spotted spider mite test, dipped infested limabean plants
Method in brief: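 Compound dissolved at 10,000 ppm in 35% aqueous acetone, then water-diluted; limabean primary leaves carrying ~100 OP-resistant mites each are dipped 3 s and dried. Adult mortality read on one leaf after 2 days, eggs/newly emerged nymphs on another after 5 days, scored by rating scale.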

[4] = system: Empoasca abrupta, adult, western potato leafhopper; test: Western potato leafhopper systemic uptake test; details: 100 ppm
Method in brief: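 Leafhopper mortality, rated on a scale, scored 2 days after about 10 adults were confined with a leaf in a moist dish. The leaf came from a cut lima bean stem that had taken up the compound emulsion (100 ppm and 10-fold dilutions) over 3 days at 27 °C.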

[5] = system: Spodoptera eridania, 3rd instar larvae, southern armyworm; test: Southern armyworm systemic uptake (stem systemic) test; details: cut stem in emulsion 3 days
[6] = system: Heliothis virescens, egg, tobacco budworm; test: Tobacco budworm egg test, dipped cotton leaf and eggs; details: mortality rating after 3 days
Method in brief: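 Scoring is by mortality counts after 3 days, graded on a rating scale. Tobacco budworm eggs (6-30 h old) on cheesecloth and a young cotton leaf were each dipped about 3 s in the test suspension. Suspensions were made from a 10,000 ppm stock in 35% acetone/water with further water dilutions.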

[7] = spray, mortality rating after 2 days
[8] = 10 ppm, mortality rating after 2 days
[9] = 300 ppm, mortality rating after 2 days
[10] = cut stem in emulsion 3 days, mortality rating after 2 days
[11] = 10 ppm, mite nymphs, rating scale 0-9
[12] = 300 ppm, mite eggs, rating scale 0-9
[13] = 300 ppm, mite nymphs, rating scale 0-9
[14] = systemic uptake, rating scale 0-9
[15] = 300 ppm, adult mites, rating scale 0-9
[16] = 10 ppm, adult mites, rating scale 0-9
[17] = 10 ppm, mite eggs, rating scale 0-9
[18] = 100 ppm, adult mites, rating scale 0-9
[19] = 100 ppm, mite eggs, rating scale 0-9

Row | SMILES | SOUTHERN CORN ROOTWORM ([1]; 50 (ppm as headed)) | APHIDS [2, 7] | OP-RESISTANT MITES Egg ([3]; 300 ppm, rating after 5 days) | LEAFHOPPER Systemic [4, 10] | ARMYWORM Stem Sys [5] | TOBACCO BUDWORM Egg ([6]; 100 ppm) | TOBACCO BUDWORM Egg ([6]; 1000 ppm) | APHIDS ([2]; rating scale 0-9) | OP-RESISTANT MITES Egg [3, 12] | OP-RESISTANT MITES Nymph [3, 13] | LEAFHOPPER Systemic [4, 14] | OP-RESISTANT MITES Adult [3, 15] | also measured
1 | N#Cc1c(Br)c(C(F)(F)F)n(CSC2=NCCN2)c1-c1ccc(Cl)cc1 [Example 7] | 9 (100% kill) | 0 | 0 | 0 | 0 | 0 | 9 (100% kill) |  |  |  |  |  | SOUTHERN CORN ROOTWORM ([1]; 1 (ppm as headed)): 0; SOUTHERN CORN ROOTWORM ([1]; 10 (ppm as headed)): 0; OP-RESISTANT MITES Adult [3, 8]: 9 (100% kill); OP-RESISTANT MITES Egg ([3]; 10 ppm, rating after 5 days): 0; OP-RESISTANT MITES Nymph ([3]; 10 ppm, rating after 5 days): 0; OP-RESISTANT MITES Adult ([3]; 100 ppm, mortality rating after 2 days): 9 (100% kill); OP-RESISTANT MITES Egg ([3]; 100 ppm, rating after 5 days): 9 (100% kill); OP-RESISTANT MITES Adult [3, 9]: 9 (100% kill); OP-RESISTANT MITES Nymph ([3]; 300 ppm, rating after 5 days): 0; TOBACCO BUDWORM Egg ([6]; 300 ppm): 8 (86-99% kill)
2 | CCOC(=S)SCn1c(-c2ccc(Cl)c(Cl)c2)c(Br)c(C(F)(F)F)c1C(F)(F)F [Example 35] | 0 |  |  |  | 0 |  | 0 | 0 | 0 | 0 | 0 |  | OP-RESISTANT MITES Nymph [3, 11]: 0
3 | CN=C(NC)SCn1c(-c2ccc(Cl)cc2)c(C#N)c(Cl)c1C(F)(F)F [Example 2] | 8 (86-99% kill) | 0 | 0 | 0 | 0 | 0 | 0 |  |  |  |  |  | SOUTHERN CORN ROOTWORM ([1]; 1 (ppm as headed)): 0; SOUTHERN CORN ROOTWORM ([1]; 10 (ppm as headed)): 0; OP-RESISTANT MITES Egg ([3]; 10 ppm, rating after 5 days): 0; OP-RESISTANT MITES Egg ([3]; 100 ppm, rating after 5 days): 9 (100% kill)
4 | CN=C(NC)SCn1c(Cl)c(C#N)c(Cl)c1-c1ccc(Cl)c(Cl)c1 [Example 19] | 0 |  |  |  | 0 |  | 0 | 0 | 0 | 0 | 0 | 5 (56-65% kill) | 
5 | CCOC(=S)SCn1c(-c2ccc(Cl)cc2)c(C#N)c(Br)c1C(F)(F)F [Example 29] | 9 (100% kill) |  |  |  | 0 | 0 | 4 (46-55% kill) | 0 | 0 | 0 | 0 | 9 (100% kill) | OP-RESISTANT MITES Adult [3, 16]: 9 (100% kill); OP-RESISTANT MITES Egg [3, 17]: 9 (100% kill); OP-RESISTANT MITES Adult [3, 18]: 9 (100% kill); OP-RESISTANT MITES Egg [3, 19]: 9 (100% kill)
6 | CC1(C)CN=C(SCn2c(-c3ccc(Cl)cc3)c(C#N)c(Br)c2C(F)(F)F)NC1 [Example 10] | 0 |  |  |  | 0 | 0 | 0 | 0 | 0 | 0 | 6 (66-75% kill) | 0 | 
7 | CN=C(NC)SCn1c(Br)c(Br)c(C#N)c1Br [Example 14] | 0 |  |  |  | 0 |  | 0 | 0 | 0 | 0 | 7 (76-85% kill) | 0 | 
8 | CSCn1c(Br)c(Br)c(C#N)c1-c1ccc(C(F)(F)F)cc1 [Example 44] | 3 (36-45% kill) | 0 | 0 | 0 | 0 |  | 0 |  |  |  |  |  | SOUTHERN CORN ROOTWORM ([1]; 10 (ppm as headed)): 0; OP-RESISTANT MITES Adult [3, 8]: 0; OP-RESISTANT MITES Egg ([3]; 10 ppm, rating after 5 days): 0; OP-RESISTANT MITES Egg ([3]; 100 ppm, rating after 5 days): 7 (76-85% kill); OP-RESISTANT MITES Nymph ([3]; 100 ppm, rating after 5 days): 0
9 | CCOC(=S)SCn1c(Cl)c(C#N)c(Cl)c1-c1ccc(Cl)c(Cl)c1 [Example 37] | 0 |  |  |  | 0 |  | 0 | 0 | 0 | 0 | 0 |  | OP-RESISTANT MITES Adult [3, 16]: 0; OP-RESISTANT MITES Nymph [3, 11]: 4 (46-55% kill)
10 | CC(C)OC(=S)SCn1c(-c2ccc(Cl)cc2)c(C#N)c(Br)c1C(F)(F)F [Example 30] | 9 (100% kill) |  |  |  | 0 | 0 | 0 | 3 (36-45% kill) | 0 | 0 | 0 | 9 (100% kill) | OP-RESISTANT MITES Adult [3, 16]: 9 (100% kill); OP-RESISTANT MITES Egg [3, 17]: 9 (100% kill); OP-RESISTANT MITES Adult [3, 18]: 9 (100% kill); OP-RESISTANT MITES Egg [3, 19]: 9 (100% kill)
11 | N#Cc1c(Cl)c(C(F)(F)F)n(CSC2=NCCN2)c1-c1ccc(Cl)cc1 [Example 4] | 0 | 0 | 9 (100% kill) | 0 | 0 | 9 (100% kill) | 9 (100% kill) |  |  |  |  |  | OP-RESISTANT MITES Adult [3, 8]: 0; OP-RESISTANT MITES Egg ([3]; 10 ppm, rating after 5 days): 0; OP-RESISTANT MITES Nymph ([3]; 10 ppm, rating after 5 days): 0; OP-RESISTANT MITES Egg ([3]; 100 ppm, rating after 5 days): 0; OP-RESISTANT MITES Nymph ([3]; 100 ppm, rating after 5 days): 0
12 | N#Cc1c(Br)c(C(F)(F)F)n(CSC2=NCCS2)c1-c1ccc(Cl)cc1 [Example 16] | 9 (100% kill) |  |  |  | 4 (46-55% kill) | 0 | 0 | 8 (86-99% kill) | 0 | 0 | 0 | 0 | 
13 | N#Cc1c(Br)c(Br)n(CSC2=NCCCN2)c1Br [Example 13] | 0 |  |  |  | 7 (76-85% kill) |  | 0 | 0 | 0 | 0 | 0 | 5 (56-65% kill) | 
14 | CN=C(NC)SCn1c(Cl)c(Cl)c(C#N)c1-c1ccc(Cl)c(Cl)c1 [Example 15] | 0 |  |  |  | 0 | 0 | 0 | 0 | 0 | 0 | 0 | 0 | 
15 | CSCn1c(-c2ccc(Cl)cc2)c(C#N)c(Br)c1C(F)(F)F [Example 25] | 0 | 0 | 0 | 0 | 0 |  | 0 |  |  |  |  |  | SOUTHERN CORN ROOTWORM ([1]; 10 (ppm as headed)): 0; OP-RESISTANT MITES Adult [3, 9]: 7 (76-85% kill); OP-RESISTANT MITES Nymph ([3]; 300 ppm, rating after 5 days): 0
